Publication PMC6787163, “Systematic Dual Targeting of Dendritic Cell C-Type Lectin Receptor DC-SIGN and TLR7 Using a Trifunctional Mannosylated Antigen” (Frontiers in Chemistry, 2019)
“Also recorded” adds a separate entry of the source. Like-named read-outs stand apart in the source and are kept apart here.

Experiments:
DC-SIGN S-ECD = target: T1, DC-SIGN S-ECD (Homo sapiens, UniProt Q9NNX6); assay: SPR direct interaction assay on oriented DC-SIGN S-ECD surface; type: binding; details: for Kd: SPR direct interaction, oriented tetrameric DC-SIGN ECD surface, apparent Kd
T1 construct: The ECD of DC-SIGN (residues 66–404) was overexpressed and purified as previously described; made in house
T1 sequence (Q9NNX6 66-404): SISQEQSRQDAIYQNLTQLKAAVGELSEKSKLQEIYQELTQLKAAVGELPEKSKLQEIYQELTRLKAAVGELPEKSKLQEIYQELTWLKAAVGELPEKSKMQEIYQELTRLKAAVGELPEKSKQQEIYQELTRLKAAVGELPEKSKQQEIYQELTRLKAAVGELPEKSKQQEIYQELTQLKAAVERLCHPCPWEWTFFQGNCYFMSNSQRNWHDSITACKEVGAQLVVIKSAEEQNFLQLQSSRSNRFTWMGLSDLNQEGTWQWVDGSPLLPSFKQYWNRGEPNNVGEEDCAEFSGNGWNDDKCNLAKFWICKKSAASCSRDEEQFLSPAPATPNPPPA
How it was run: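 Tetrameric DC-SIGN ECD carrying an N-terminal StrepTagII was captured in oriented form on streptactin (2,500–3,000 RU), with a streptactin-only control cell. Glycoclusters were injected at increasing concentrations (30 μL/min) in Tris pH 8 buffer with 150 mM NaCl and 4 mM CaCl2. Apparent Kd from a 1:1 fit reflects binding to the whole surface.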

[1] = test system: moDCs co-cultured with gp100-specific T cells; assay: Antigen presentation by moDCs to gp100-specific T cells (IFNγ ELISA); type: cell-based, human; details: 20 μM conjugate, 30 min pulse, overnight co-culture
Experimental: Lastly, antigen presentation was determined in a human T cell antigen presentation model (Figure 5D). In this assay, the potency of DCs to present the internalized gp100 antigen on the cell surface to gp100-specific T cells is analyzed. The IFNγ secretion of activated T cells upon recognition of the cell surface presented gp100 is measured. Day 5 moDCs were stimulated for 30 min, as the internalization was relatively fast, with the glycopeptides at the assay-optimized concentration of 20 μM (Supplementary Figure 1H). The constructs were washed away before overnight co-culture with gp100-specific T cells. […] The obstruction of antigen presentation was primarily seen with the B6-gp100-TLR7L contradicting the assumption that the best binding constructs will simultaneously maximize T cell activation. […]
Immature day 5 moDCs were seeded in 96-well plates (Greiner) at 50·10^3 cells/well and incubated with 20 μM of the different gp100-conjugates in the presence or absence of the TLR4 ligand LPS (10 ng/mL) or the TLR7 ligand Imiquimod (2.5 μg/mL). […] IFNγ in the supernatant was measured by sandwich ELISA according to the manufacturer's protocol (Biosource), and measured by spectrophotometric analysis on the iMarkTM Microplate Absorbance Reader (Bio-RAD) at 450 nm.

DC-SIGN on moDC = assay: Binding of biotinylated mannoside library to moDCs by flow cytometry; type: cell-based, human; details: 10 μM biotinylated cluster, 30 min at 4°C, streptavidin staining
Experimental: Next, we assessed the binding of our clusters to cellular DC-SIGN using moDCs (Figure 3B, Supplementary Figure 1B). To this end, binding of the clusters a1–a6, b1–b6, c1–c6, d1–d6, and e1–e6, decorated with a biotin handle, was determined by flow cytometry. Clusters were bound to moDCs for 30 min at 4°C. By staining using fluorophore-conjugated streptavidin and washing at 4°C, the bound clusters could be quantified by flow cytometry. […] In control experiments ligand binding to DC-SIGN was inhibited using a blocking anti-DC-SIGN antibody (Supplementary Figure 1C).
Approximately 10^5 day 5 moDCs were washed and resuspended in 100 μL culture medium (pre-cooled to 4°C). 20 μg/mL AZN-D1 (anti-DC-SIGN, in house Geijtenbeek et al., [2002]) or purified mouse anti-human CD206 antibody (Clone 19.2, BD Bioscience) was added to the moDCs and pre-incubated for 45 min on ice. Subsequently, 10 μM of the biotinylated mannoside clusters or 1 μg/mL of Lewis^Y-conjugated polyacrylamide (positive control) was added, and incubated for 30 min at 4°C. Cells were then washed with pre-cooled PBS (4°C), and stained with Alexa647-labeled streptavidin (Invitrogen^TM) in PBS supplemented with 0.5% BSA and 0.02% NaN3 (PBA) for 30 min at 4°C. Upon washing in ice-cold PBA and fixation in PBS with 0.5% PFA, the fluorescence was measured by flow cytometry (CyAn™ ADP with Summit™ Software), and further analyzed using FlowJo v10.

moDCs = assay: Internalization of biotinylated hexavalent clusters by moDCs (flow cytometry); type: cell-based, human
How it was run: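 Immature day-5 moDCs (half gently pre-fixed with 1% PFA) loaded with 20 μM biotinylated clusters for 1 h on ice, washed, then shifted to 37°C; samples taken at time points. Surface retention read by Streptavidin-Alexa647 flow cytometry; parallel run used clusters pre-complexed with pHrodo-Avidin (2:1, 15 min, 37°C).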

| Kd (DC-SIGN S-ECD; read-out: Kdapp) [µM] | binding to DC-SIGN on moDC (DC-SIGN on moDC) | Structure (SMILES) | decrease of DC-SIGN affinity on conjugation to gp100 or gp100-TLR7L (factor) (DC-SIGN S-ECD; Kd-app of conjugate vs unconjugated cluster) | Kd (DC-SIGN S-ECD; Kdapp) [µM] | antigen presentation (IFNγ release of activated gp100-specific T cells) [1] | internalization by moDCs (loss of surface streptavidin signal) (moDCs; 20 μM cluster, live moDCs) | internalization by moDCs (pHrodo-avidin fluorescence increase) (moDCs; clusters pre-complexed with pH-sensitive dye) | uptake by immature moDCs (moDCs; within 5 min at 37°C, 20 μM cluster) [%] |
| --- | --- | --- | --- | --- | --- | --- | --- | --- |
|  |  | CCCCOc1nc(N)c2[nH]c(=O)n(Cc3ccc(C(=O)NCCOCCOCC(=O)NCCCC[C@H](NC(=O)CNC(=O)[C@H](CCCNC(=N)N)NC(=O)[C@H](Cc4c[nH]c5ccccc45)NC(=O)[C@H](CC)NC(=O)[C@H](CC(=O)O)NC(=O)[C@H](CC(C)C)NC(=O)[C@H](CCCNC(=N)N)NC(=O)[C@H](CCC(N)=O)NC(=O)[C@H](C)NC(=O)[C@H](CCC(=O)O)NC(=O)[C@@H](NC(=O)[C@H](Cc4c[nH]c5ccccc45)NC(=O)[C@H](CCC(=O)O)NC(=O)[C@@H]4CCCN4C(=O)[C@H](Cc4ccc(O)cc4)NC(=O)[C@H](CC(C)C)NC(=O)[C@H](CCC(N)=O)NC(=O)[C@H](CCCNC(=N)N)NC(=O)[C@H](CC(N)=O)NC(=O)[C@H](C)NC(=O)[C@@H](NC(=O)[C@@H](NC(=O)[C@@H]4CCCN4C(=O)CNC(=O)[C@@H]4CCCN4C(=O)[C@H](CCC(=O)O)NC(=O)[C@H](CC(C)C)NC(=O)[C@H](Cc4ccc(O)cc4)NC(=O)[C@@H](NC(=O)[C@H](Cc4c[nH]cn4)NC(=O)[C@@H](NC(=O)[C@@H](NC(=O)[C@H](CCCCn4cc(CCC(=O)NCCCC[C@H](NC(=O)CNC(=O)[C@H](CCCCn5cc(CO[C@H]6O[C@H](CO[C@H]7O[C@H](CO)[C@@H](O)[C@H](O)[C@@H]7O)[C@@H](O)[C@H](O[C@H]7O[C@H](CO)[C@@H](O)[C@H](O)[C@@H]7O)[C@@H]6O)nn5)NC(=O)[C@H](CCCCn5cc(CO[C@H]6O[C@H](CO[C@H]7O[C@H](CO)[C@@H](O)[C@H](O)[C@@H]7O)[C@@H](O)[C@H](O[C@H]7O[C@H](CO)[C@@H](O)[C@H](O)[C@@H]7O)[C@@H]6O)nn5)NC(=O)[C@H](CCCCn5cc(CO[C@H]6O[C@H](CO[C@H]7O[C@H](CO)[C@@H](O)[C@H](O)[C@@H]7O)[C@@H](O)[C@H](O[C@H]7O[C@H](CO)[C@@H](O)[C@H](O)[C@@H]7O)[C@@H]6O)nn5)NC(=O)[C@H](CCCCn5cc(CO[C@H]6O[C@H](CO[C@H]7O[C@H](CO)[C@@H](O)[C@H](O)[C@@H]7O)[C@@H](O)[C@H](O[C@H]7O[C@H](CO)[C@@H](O)[C@H](O)[C@@H]7O)[C@@H]6O)nn5)NC(=O)[C@H](CCCCn5cc(CO[C@H]6O[C@H](CO[C@H]7O[C@H](CO)[C@@H](O)[C@H](O)[C@@H]7O)[C@@H](O)[C@H](O[C@H]7O[C@H](CO)[C@@H](O)[C@H](O)[C@@H]7O)[C@@H]6O)nn5)NC(=O)[C@H](CCCCn5cc(CO[C@H]6O[C@H](CO[C@H]7O[C@H](CO)[C@@H](O)[C@H](O)[C@@H]7O)[C@@H](O)[C@H](O[C@H]7O[C@H](CO)[C@@H](O)[C@H](O)[C@@H]7O)[C@@H]6O)nn5)NC(C)=O)C(N)=O)nn4)NC(C)=O)C(C)C)[C@@H](C)O)[C@@H](C)O)C(C)C)[C@@H](C)O)[C@@H](C)O)C(N)=O)cc3)c2n1 [E6-gp100-TLR7L] | about 10 | 31 | increased T cell activation; also recorded: strongest antigen presentation |  |  |  |
| 6.56 ± 1.2 | no increase in binding | CC(=O)N[C@@H](CCCCn1cc(CO[C@H]2O[C@H](CO[C@H]3O[C@H](CO)[C@@H](O)[C@H](O)[C@@H]3O)[C@@H](O)[C@H](O)[C@@H]2O)nn1)C(=O)N[C@@H](CCCCn1cc(CO[C@H]2O[C@H](CO[C@H]3O[C@H](CO)[C@@H](O)[C@H](O)[C@@H]3O)[C@@H](O)[C@H](O)[C@@H]2O)nn1)C(=O)N[C@@H](CCCCn1cc(CO[C@H]2O[C@H](CO[C@H]3O[C@H](CO)[C@@H](O)[C@H](O)[C@@H]3O)[C@@H](O)[C@H](O)[C@@H]2O)nn1)C(=O)N[C@@H](CCCCn1cc(CO[C@H]2O[C@H](CO[C@H]3O[C@H](CO)[C@@H](O)[C@H](O)[C@@H]3O)[C@@H](O)[C@H](O)[C@@H]2O)nn1)C(=O)N[C@@H](CCCCn1cc(CO[C@H]2O[C@H](CO[C@H]3O[C@H](CO)[C@@H](O)[C@H](O)[C@@H]3O)[C@@H](O)[C@H](O)[C@@H]2O)nn1)C(=O)N[C@@H](CCCCn1cc(CO[C@H]2O[C@H](CO[C@H]3O[C@H](CO)[C@@H](O)[C@H](O)[C@@H]3O)[C@@H](O)[C@H](O)[C@@H]2O)nn1)C(=O)NCC(=O)N[C@@H](CCCCN)C(N)=O [D6] |  |  |  | rapidly internalized | internalized rapidly | 50 |
